In the NIST ThermoML archive (doi:10.1016/j.jct.2012.08.021):

Test: xn = mol fraction of the nth substance listed
Details: 101 kPa, Liquid, Vibrating tube method

OCCNCCO [diethanolamine] + C[S+](C)[O-]
Details | mass density [kg/m3]
293.14 K, x1 = 0.9002 | 1097.48
293.15 K, x1 = 0.1002 | 1098.86
293.15 K, x1 = 0.1999 | 1097.33
293.15 K, x1 = 0.2998 | 1096.58
293.15 K, x1 = 0.4001 | 1096.23
293.15 K, x1 = 0.5001 | 1096.24
293.15 K, x1 = 0.6 | 1096.29
293.15 K, x1 = 0.7002 | 1096.88
293.15 K, x1 = 0.8001 | 1097.24
293.15 K, x1 = 1 | 1097.61
303.14 K, x1 = 0.4001 | 1087.87
303.14 K, x1 = 0.9002 | 1090.69
303.15 K, x1 = 0.1002 | 1089.38
303.15 K, x1 = 0.1999 | 1088.26
303.15 K, x1 = 0.2998 | 1087.88
303.15 K, x1 = 0.5001 | 1088.23
303.15 K, x1 = 0.6 | 1088.59
303.15 K, x1 = 0.7002 | 1089.43
303.15 K, x1 = 0.8001 | 1090.11
303.15 K, x1 = 1 | 1091.17
313.14 K, x1 = 0.4001 | 1079.49
313.15 K, x1 = 0.1002 | 1079.89
313.15 K, x1 = 0.1999 | 1079.19
313.15 K, x1 = 0.2998 | 1079.18
313.15 K, x1 = 0.5001 | 1080.19
313.15 K, x1 = 0.6 | 1080.87
313.15 K, x1 = 0.7002 | 1081.97
313.15 K, x1 = 0.8001 | 1082.9
313.15 K, x1 = 0.9002 | 1083.77
313.15 K, x1 = 1 | 1084.6
323.14 K, x1 = 0.4001 | 1071.1
323.15 K, x1 = 0.1002 | 1070.39
323.15 K, x1 = 0.1999 | 1070.11
323.15 K, x1 = 0.2998 | 1070.46
323.15 K, x1 = 0.5001 | 1072.12
323.15 K, x1 = 0.6 | 1073.1
323.15 K, x1 = 0.7002 | 1074.48
323.15 K, x1 = 0.9002 | 1076.8
323.15 K, x1 = 1 | 1077.88
323.16 K, x1 = 0.8001 | 1075.68
333.14 K, x1 = 1 | 1071.11
333.15 K, x1 = 0.1002 | 1060.89
333.15 K, x1 = 0.1999 | 1061.01
333.15 K, x1 = 0.2998 | 1061.72
333.15 K, x1 = 0.4001 | 1062.67
333.15 K, x1 = 0.5001 | 1064.01
333.15 K, x1 = 0.6 | 1065.3
333.15 K, x1 = 0.7002 | 1066.94
333.15 K, x1 = 0.8001 | 1068.41
333.15 K, x1 = 0.9002 | 1069.78
343.14 K, x1 = 0.4001 | 1054.22
343.14 K, x1 = 0.9002 | 1062.69
343.14 K, x1 = 1 | 1064.25
343.15 K, x1 = 0.1002 | 1051.36
343.15 K, x1 = 0.1999 | 1051.9
343.15 K, x1 = 0.2998 | 1052.96
343.15 K, x1 = 0.5001 | 1055.86
343.15 K, x1 = 0.6 | 1057.43
343.15 K, x1 = 0.7002 | 1059.34
343.15 K, x1 = 0.8001 | 1061.08
353.14 K, x1 = 0.1999 | 1042.77
353.14 K, x1 = 0.5001 | 1047.65
353.14 K, x1 = 0.7002 | 1051.66
353.14 K, x1 = 0.9002 | 1055.5
353.14 K, x1 = 1 | 1057.31
353.15 K, x1 = 0.1002 | 1041.8
353.15 K, x1 = 0.2998 | 1044.16
353.15 K, x1 = 0.4001 | 1045.72
353.15 K, x1 = 0.6 | 1049.5
353.15 K, x1 = 0.8001 | 1053.64
363.14 K, x1 = 0.1002 | 1032.21
363.14 K, x1 = 0.1999 | 1033.59
363.14 K, x1 = 0.2998 | 1035.35
363.14 K, x1 = 0.6 | 1041.5
363.14 K, x1 = 0.7002 | 1043.89
363.14 K, x1 = 0.8001 | 1046.12
363.14 K, x1 = 0.9002 | 1048.21
363.15 K, x1 = 0.4001 | 1037.18
363.15 K, x1 = 0.5001 | 1039.38
363.15 K, x1 = 1 | 1050.24

CN(CCO)CCO [N-methyldiethanolamine] + C[S+](C)[O-]
Details | mass density [kg/m3]
293.14 K, x1 = 0.5998 | 1053.8
293.15 K, x1 = 0.1002 | 1089.57
293.15 K, x1 = 0.2 | 1079.89
293.15 K, x1 = 0.3001 | 1071.58
293.15 K, x1 = 0.4001 | 1064.66
293.15 K, x1 = 0.5002 | 1058.74
293.15 K, x1 = 0.7002 | 1049.58
293.15 K, x1 = 0.7998 | 1046.1
293.15 K, x1 = 0.8998 | 1043.37
293.15 K, x1 = 1 | 1040.6
303.14 K, x1 = 0.4001 | 1056.1
303.14 K, x1 = 0.5998 | 1045.65
303.15 K, x1 = 0.1002 | 1080.03
303.15 K, x1 = 0.2 | 1070.75
303.15 K, x1 = 0.3001 | 1062.76
303.15 K, x1 = 0.5002 | 1050.39
303.15 K, x1 = 0.7002 | 1041.61
303.15 K, x1 = 0.7998 | 1038.28
303.15 K, x1 = 0.8998 | 1035.67
303.15 K, x1 = 1 | 1033.02
313.14 K, x1 = 0.4001 | 1047.54
313.14 K, x1 = 0.5998 | 1037.49
313.15 K, x1 = 0.1002 | 1070.49
313.15 K, x1 = 0.2 | 1061.61
313.15 K, x1 = 0.3001 | 1053.94
313.15 K, x1 = 0.5002 | 1042.06
313.15 K, x1 = 0.7002 | 1033.61
313.15 K, x1 = 0.7998 | 1030.42
313.15 K, x1 = 0.8998 | 1027.95
313.15 K, x1 = 1 | 1025.4
323.14 K, x1 = 0.4001 | 1038.99
323.14 K, x1 = 0.5998 | 1029.33
323.15 K, x1 = 0.1002 | 1060.95
323.15 K, x1 = 0.2 | 1052.47
323.15 K, x1 = 0.3001 | 1045.11
323.15 K, x1 = 0.5002 | 1033.71
323.15 K, x1 = 0.7002 | 1025.6
323.15 K, x1 = 0.7998 | 1022.53
323.15 K, x1 = 0.8998 | 1020.18
323.15 K, x1 = 1 | 1017.74
333.14 K, x1 = 0.4001 | 1030.43
333.14 K, x1 = 0.5998 | 1021.15
333.15 K, x1 = 0.1002 | 1051.41
333.15 K, x1 = 0.2 | 1043.33
333.15 K, x1 = 0.3001 | 1036.29
333.15 K, x1 = 0.5002 | 1025.37
333.15 K, x1 = 0.7002 | 1017.56
333.15 K, x1 = 0.7998 | 1014.63
333.15 K, x1 = 0.8998 | 1012.37
333.15 K, x1 = 1 | 1010.03
343.14 K, x1 = 0.4001 | 1021.86
343.14 K, x1 = 0.5002 | 1017.01
343.14 K, x1 = 0.5998 | 1012.95
343.15 K, x1 = 0.1002 | 1041.86
343.15 K, x1 = 0.2 | 1034.18
343.15 K, x1 = 0.3001 | 1027.48
343.15 K, x1 = 0.7002 | 1009.51
343.15 K, x1 = 0.7998 | 1006.67
343.15 K, x1 = 0.8998 | 1004.51
343.15 K, x1 = 1 | 1002.25
353.14 K, x1 = 0.1002 | 1032.29
353.14 K, x1 = 0.4001 | 1013.27
353.14 K, x1 = 0.5002 | 1008.63
353.14 K, x1 = 0.5998 | 1004.72
353.14 K, x1 = 0.8998 | 996.587
353.14 K, x1 = 1 | 994.404
353.15 K, x1 = 0.2 | 1025.01
353.15 K, x1 = 0.7002 | 1001.4
353.16 K, x1 = 0.3001 | 1018.62
353.16 K, x1 = 0.7998 | 998.661
363.14 K, x1 = 0.1002 | 1022.7
363.14 K, x1 = 0.2 | 1015.82
363.14 K, x1 = 0.3001 | 1009.77
363.14 K, x1 = 0.5002 | 1000.22
363.14 K, x1 = 0.7002 | 993.263
363.14 K, x1 = 0.7998 | 990.621
363.14 K, x1 = 0.8998 | 988.594
363.15 K, x1 = 0.4001 | 1004.65
363.15 K, x1 = 0.5998 | 996.455
363.15 K, x1 = 1 | 986.471
